Results on 26 compounds are retold here after patent US20060240048A1 (priority 2002, published 2006).

Some results are limits rather than exact numbers.

This assay concerns the target T1, human cannabinoid CB2 receptor (Homo sapiens, UniProt P34972).
T1 construct: expressed in transfected cells; host or cells: Saccharomyces cerevisiae strain MMY23
As to the kind of experiment: Cannabinoid CB2 receptor agonist activity, yeast reporter assay (FDGlu fluorescence).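 As to Emax: 100% equals maximal response of reference agonist HU210.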 The assay is classed as cell-based. Particulars: for Emax: read-out: efficacy value (Emax) at the cloned human cannabinoid CB2 receptor. Background: A reporter such as luciferase makes a cellular process visible.

T1 sequence (P34972 whole entry): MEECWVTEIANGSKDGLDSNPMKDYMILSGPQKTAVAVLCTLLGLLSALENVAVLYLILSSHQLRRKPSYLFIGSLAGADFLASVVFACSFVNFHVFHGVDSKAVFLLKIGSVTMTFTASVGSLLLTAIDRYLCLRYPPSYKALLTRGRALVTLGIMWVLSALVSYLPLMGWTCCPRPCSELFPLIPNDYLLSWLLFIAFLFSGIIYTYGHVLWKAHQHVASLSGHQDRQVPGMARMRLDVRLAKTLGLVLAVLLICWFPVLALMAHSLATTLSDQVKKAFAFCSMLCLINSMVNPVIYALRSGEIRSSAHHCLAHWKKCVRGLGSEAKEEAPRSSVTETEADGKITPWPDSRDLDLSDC

The term EC50 denotes the concentration that produces a half-maximal response. A low value points to greater potency. The term Emax denotes the greatest response seen or fitted, relative to the assay's reference. Take `O=C(NCC1CCCCC1)c1cnc(Nc2ccc(Cl)c(Cl)c2)cc1C(F)(F)F` [Example 159, N-Cyclohexylmethyl-6-(3,4-dichloro-phenylamino)-4-tri-fluoromethyl-nicotinamide]: the half-maximal effective concentration (EC50) was below 300 nM and the Emax is above 50%.

`O=C(NCC1CCCCC1)c1cnc(Nc2cc(Cl)cc(Cl)c2)cc1C(F)(F)F` [Example 146, N-Cyclohexylmethyl-6-(3,5-dichloro-phenytamino)-4-tri-fluoromethyl-nicotinamide]: the EC50 is below 300 nM and the Emax was above 50%.

Take `CC(C)c1cc(Nc2cccc(Cl)c2)ncc1C(=O)NC1CCOCC1` [Example 58, 6-(3-Chloro-phenylamino)-4-isopropyl-N-(tetrahydro-pyran-4-yl)-nicotinamide]: the Emax was above 50%.

As for `O=C(NCC1CC1)c1cnc(Nc2cccc(Cl)c2)cc1C(F)(F)F` [Example 115, N-Cyclopropylmethyl-6-(3-chlorophenylamino)-4-tri-fluoromethyl-nicotinamide], the EC50 is below 300 nM and the Emax was above 50%.

As to `O=C(NCC1CCOCC1)c1cnc(Nc2cc(Cl)cc(Cl)c2)cc1C(F)(F)F` [Example 147, N-(Tetrahydropyran-4-yl-methyl)-6-(3,5-dichloro-phenylamino)-4-trifluoro-methyl-nicotinamide], the EC50 was below 300 nM and the Emax is above 50%.

For the compound `O=C(NCC1CCCC1)c1cnc(Nc2ccc(F)cc2F)cc1C(F)(F)F` [Example 167, N-Cyclopentylmethyl-6-(2,4-difluoro-phenylamino)-4-tri-fluoromethyl-nicotinamide], the EC50 was below 300 nM and the Emax is above 50%.

As for `O=C(NCC1CCCCCC1)c1cnc(Nc2cccc(Br)c2)cc1C(F)(F)F` [Example 117, N-Cycloheptylmethyl-6-(3-bromophenylamino)-4-tri-fluoromethyl-nicotinamide], the EC50 is below 300 nM and the Emax is above 50%.

For `O=C(NCC1CCCCC1)c1cnc(Nc2cccc(Br)c2)cc1C(F)(F)F` [Example 116, N-Cyclohexylmethyl-6-(3-bromophenylamino)-4-tri-fluoromethyl-nicotinamide], the EC50 is below 300 nM and the Emax is above 50%.

In the case of `O=C(NC1CCC1)c1cnc(Nc2cccc(Br)c2)cc1C(F)(F)F` [Example 119, N-Cyclobutyl-6-(3-bromo-phenylamino)-4-trifluoro-methyl-nicotinamide], the EC50 is below 300 nM and the Emax is above 50%.

Consider `CC(C)c1cc(Nc2ccc(OC(F)(F)F)cc2Br)ncc1C(=O)NCC1CCC1` [Example 291, 6-(2-Bromo-4-trifluoromethoxy-phenylamino)-N-cyclobutylmethyl-4-isopropyl-nicotinamide], for which the Emax was above 50%.

In the case of `COc1cccc(Nc2cc(C(C)C)c(C(=O)NCC3CCOCC3)cn2)c1` [Example 41, 4-Isopropyl-6-(3-methoxy-phenylamino)-N-(tetrahydro-pyran-4-ylmethyl)-nicotinamide], the Emax is above 50%.

Turning to `COc1cccc(Nc2cc(C(C)C)c(C(=O)NCC3CCCC3)cn2)c1` [Example 27, N-Cyctopentylmethyl-4-isopropyl-6-(3-methoxyphenylamino) nicotinamide], the EC50 is below 300 nM and the Emax is above 50%.

On to `Cc1c(Br)cccc1Nc1cc(C(C)C)c(C(=O)NCC(C)C)cn1` [Example 272, 6-(3-Bromo-2-methyl-phenylamino)-N-isobutyl-4-isopropyl-nicotinamide], for which the EC50 was below 300 nM and the Emax is above 50%.

Turning to `CC(C)c1nc(Nc2cccc(F)c2)ccc1C(=O)NCC1CCC1` [Example 216, 6-(3-Fluoro-phenylamino)-N-cyclobutylmethyl-2-isopropyl-nicotinamide], the EC50 is below 300 nM and the Emax is above 50%.

Consider `Cc1cc(Cl)ccc1Nc1cc(C(C)C)c(C(=O)NCC2CCOCC2)cn1` [Example 244, 6-(4-Chloro-2-methyl-phenylamino)-4-isopropyl-N-(tetrahydro-pyran-4-ylmethyl)-nicotinamide], for which the EC50 was below 300 nM and the Emax is above 50%.

As to `CC(C)c1cc(Nc2ccc(C#N)cc2Cl)ncc1C(=O)NCC1CCCC1` [Example 30, 6-(2-Chloro-4-cyano-phenylamino)-N-cyclopentylmethyl-4-isopropyl-nicotinamide], the EC50 is below 300 nM and the Emax is above 50%.

In the case of `O=C(NCC1CCS(=O)(=O)C1)c1cnc(Nc2cccc(Cl)c2)cc1C(F)(F)F` (centres unmarked) [Example 106, 6-(3-Chloro-phenylamino)-N-(1,1-dioxo-tetrahydrothiophen-3-ylmethyl)-4-trifluoromethyl-nicotinamide], the EC50 is below 300 nM and the Emax was above 50%.

Take `CC(C)c1cc(Nc2cccc(Br)c2)ncc1C(=O)NCC1CCOCC1` [Example 8, 6-(3-Bromo-phenyl-amino)-4-isopropyl-N-(tetrahydro-pyran-4-ylmethyl)-nicotinamide]: the Emax is above 50%.

Regarding `CC(C)c1cc(Nc2ccc(C#N)c(Br)c2)ncc1C(=O)NCC1CCOCC1` [Example 239, 6-(3-Bromo-4-cyano-phenylamino)-4-isopropyl-N-(tetrahydro-pyran-4-ylmethyl)-nicotinamide], the EC50 is below 300 nM and the Emax was above 50%.

`CC(C)c1cc(Nc2cccc(Cl)c2)ncc1C(=O)NCC1CCOCC1` [Example 7, 6-(3-Chloro-phenyl-amino)-4-isopropyl-N-(tetrahydro-pyran-4-ylmethyl)-nicotinamide]: the maximal response (Emax) was above 50%.

For `CC(C)c1cc(Nc2cccc(C#N)c2)ncc1C(=O)NCC1CCC1` [Example 36, 6-(3-Cyano-phenylamino)-N-cyclobutylmethyl-4-isopropyl-nicotinamide], the 50% effective concentration (EC50) is below 300 nM and the Emax is above 50%.

On to `CC(C)c1cc(Nc2ccc(Cl)cc2Cl)ncc1C(=O)NCC1CCS(=O)(=O)C1` (centres unmarked) [Example 278, 6-(2,4-Dichloro-phenylamino)-N-(1,1-dioxo-tetrahydro-1/^6-thiophen-3-ylmethyl)-4-isopropyl-nicotinamide], for which the EC50 was below 300 nM and the Emax was above 50%.

Take `O=C(NCC1CCCCCC1)c1cnc(Nc2cccc(F)c2)cc1C(F)(F)F` [Example 125, N-Cycloheptylmethyl-6-(3-fluoro-phenylamino)-4-tri-fluoromethyl-nicotinamide]: the EC50 is below 300 nM and the Emax was above 50%.

For the compound `CC(C)c1cc(Nc2cccc(OC(F)(F)F)c2)ncc1C(=O)NCC1CCCC1` [Example 25, N-Cyclopentylmethyl-4-isopropyl-6-(3-trifluoromethoxy-phenylamino)-nicotinamide], the EC50 is below 300 nM and the Emax is above 50%.

As to `CC(C)c1cc(Nc2ccc(F)c(Cl)c2)ncc1C(=O)NCC1CCC1` [Example 254, 6-(3-Chloro-4-fluoro-phenylamino)-N-cyclobutylmethyl-4-isopropyl-nicotinamide], the EC50 was below 300 nM and the Emax was above 50%.

For `O=C(NCC1CC1)c1cnc(Nc2cc(Cl)cc(Cl)c2)cc1C(F)(F)F` [Example 152, N-Cyclopropylmethyl-6-(3,5-dichloro-phenylamino)-4-tri-fluoromethyl-nicotinamide], the EC50 is below 300 nM and the Emax was above 50%.
